pIC50: −log10 of the molar value. Counter-ions that a name gives are not always drawn.
These compounds were tested on Aβ1-42 production (assay: Cellular assay for inhibition of Aβ1-42 production (H4 APP751 SWE clone 8.20)). Conditions: 19 h, H4 APP751 SWE clone 8.20 cells, 19 h incubation; class symbols; read-out: Activity Rating (Aβ42 cellular IC50).
Type: cell-based
Procedure, shortened: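 Aβ42 read by time-resolved FRET using neoepitope antibody 565 (0.8 ng/well) paired with N-terminal 26D6 (75 ng/well), incubated overnight at 4 °C, then IC50 curve fitting. Cells: H4 APP751 Swedish clone 8.20, exposed to compound for 19 h at 37 °C.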
`COc1cc(Nc2nc3c(c(N4CCC(N(C)C)C4)n2)CCC3c2ccc(F)cc2)ccc1-n1cnc(Cl)c1` (stereo not drawn) [Example 29, N-(4-(4-chloro-1H-imidazol-1-yl)-3-methoxyphenyl)-4-(3-(dimethylamino)pyrrolidin-1-yl)-7-(4-fluorophenyl)-6,7-dihydro-5H-cyclopenta[d]pyrimidin-2-amine] showed a pIC50 of 7.00 to 8.00.
`CNc1nc(Nc2ccc(-n3cnc(Cl)c3)c(OC)c2)nc2c1CCC2c1ccc(F)cc1` (stereo not drawn) [Example 11, N^2-(4-(4-Chloro-1H-imidazol-1-yl)-3-methoxyphenyl)-7-(4-fluorophenyl)-N^4-methyl-6,7-dihydro-5H-cyclopenta[d]pyrimidine-2,4-diamine] gave a pIC50 of 8.00 to 8.82.
With `CNc1nc(Nc2ccc(-c3ccncc3)c(OC)c2)nc2c1CCC2c1ccccc1` (stereo not drawn) [Example 262, N2-(3-methoxy-4-(pyridin-4-yl)phenyl)-N4-methyl-7-phenyl-6,7-dihydro-5H-cyclopenta[d]pyrimidine-2,4-diamine] the pIC50 was 8.00 to 8.82.
With `CCNc1nc(Nc2ccc(-n3cnc(C)n3)c(F)c2)nc2c1CN(S(C)(=O)=O)CC2c1ccc(F)cc1` (stereo not drawn) [Example 156, N4-ethyl-N2-(3-fluoro-4-(3-methyl-1H-1,2,4-triazol-1-yl)pheny)-8-(4-fluorophenyl)-6-(methylsulfonyl)-5,6,7,8-tetrahydropyrido[4,3-d]pyrimidine-2,4-diamine] the pIC50 was 8.00 to 8.82.
`CCNc1nc(Nc2ccc(-n3cnc(Cl)c3)c(OC)c2)nc2c1COCC2c1ccc(C(F)(F)F)cc1` (racemic) [Example 118, N2-(4-(4-chloro-1H-imidazol-1-yl)-3-methoxyphenyl)-N4-ethyl-8-(4-(trifluoromethyl)phenyl)-7,8-dihydro-5H-pyrano[4,3-d]pyrimidine-2,4-diamine, TFA] showed a pIC50 of 7.00 to 8.00.
`COc1cc(Nc2nc3c(c(N4CC(C)(C#N)C4)n2)CCC3c2ccc(F)cc2)ccc1-n1cnc(Cl)c1` (stereo not drawn) [Example 186, 1-(2-(4-(4-chloro-1H-imidazol-1-yl)-3-methoxyphenylamino)-7-(4-fluorophenyl)-6,7-dihydro-5H-cyclopenta[d]pyrimidin-4-yl)-3-methylazetidine-3-carbonitrile] showed a pIC50 of 7.00 to 8.00.
With `COc1cc(Nc2nc3c(c(N4CCC[C@@H]4C)n2)COC3c2ccc(F)cc2)ccc1-n1cnc(Cl)c1` (single isomer, unassigned) [Example 74A] the pIC50 was 7.00 to 8.00.
Work on `CNc1nc(Nc2ccc(-n3cnc(C)c3)c(OC)n2)nc2c1CCC2c1ccc(F)cc1` (stereo not drawn) [Example 267, 7-(4-fluorophenyl)-N2-(6-methoxy-5-(4-methyl-1H-imidazol-1-yl)pyridin-2-yl)-N4-methyl-6,7-dihydro-5H-cyclopenta[d]pyrimidine-2,4-diamine] yielded a pIC50 of 7.00 to 8.00.
`COc1cc(Nc2nc3c(c(N(C)C)n2)COCC3c2ccc(Cl)cc2)ccc1-n1cnc(Cl)c1` (stereo not drawn) [Example 65, N^2-(4-(4-chloro-1H-imidazol-1-yl)-3-methoxyphenyl)-8-(4-chlorophenyl)-N^4,N^4-dimethyl-7,8-dihydro-5H-pyrano[4,3-d]pyrimidine-2,4-diamine] was tested, and the pIC50 was 7.00 to 8.00.
In the case of `COc1cc(Nc2nc3c(c(N4CC(F)(F)C4)n2)COC3c2ccc(F)cc2)ccc1-n1cnc(Cl)c1` (stereo not drawn) [Example 80A, N-(4-(4-chloro-1H-imidazol-1-yl)-3-methoxyphenyl)-4-(3,3-difluoroazetidin-1-yl)-7-(4-fluorophenyl)-5,7-dihydrofuro[3,4-d]pyrimidin-2-amine], the pIC50 was 7.00 to 8.00.
With `CNc1nc(Nc2ccc(-n3cnc(Cl)c3)c(OC)c2)nc2c1COC2c1ccc(F)cc1` (single isomer, unassigned) [Example 79B, N^2-(4-(4-chloro-1H-imidazol-1-yl)-3-methoxyphenyl)-7-(4-fluorophenyl)-N^4-methyl-5,7-dihydrofuro[3,4-d]pyrimidine-2,4-diamine] the pIC50 was 7.00 to 8.00.
Compound `COc1cc(Nc2nc3c(c(N(C)C)n2)C[C@H](O)[C@H]3c2ccccc2)ccc1-n1cnc(Cl)c1` [Example 180, (6S,7S)-2-(4-(4-chloro-1H-imidazol-1-yl)-3-methoxyphenylamino)-4-(dimethylamino)-7-phenyl-6,7-dihydro-5H-cyclopenta[d]pyrimidin-6-ol] has a pIC50 of 7.00 to 8.00.
Compound `CNc1nc(Nc2ccc3nc(C)sc3c2)nc2c1CCC2c1ccccc1` (stereo not drawn) [Example 255, N4-methyl-N2-(2-methylbenzo[d]thiazol-6-yl)-7-phenyl-6,7-dihydro-5H-cyclopenta[d]pyrimidine-2,4-diamine] has a pIC50 of under 6.00.

Same assay, conditions: 19 h, H4 APP751 SWE clone 8.20 cells, 19 h incubation; read-out: Activity Rating (Aβ42 cellular IC50), numeric value
`C#Cc1ccc(Nc2nc(NC)c3c(n2)C(c2ccc(F)cc2)CC3)cc1` (stereo not drawn) [Example 259, N2-(4-ethynylphenyl)-7-(4-fluorophenyl)-N4-methyl-6,7-dihydro-5H-cyclopenta[d]pyrimidine-2,4-diamine] showed a pIC50 of 6.03.
For `COc1cc(Nc2nc3c(c(N4CCC(=O)C4)n2)CCC3c2ccccc2)ccc1-n1cnc(Cl)c1` (stereo not drawn) [Example 206, 1-(2-(4-(4-chloro-1H-imidazol-1-yl)-3-methoxyphenylamino)-7-phenyl-6,7-dihydro-5H-cyclopenta[d]pyrimidin-4-yl)pyrrolidin-3-one], the pIC50 was 7.82.
Work on `CCN(C)c1nc(Nc2ccc(-n3cnc(Cl)c3)c(OC)c2)nc2c1COCC2c1ccc(F)cc1` (stereo not drawn) [Example 62B, N2-(4-(4-chloro-1H-imidazol-1-yl)-3-methoxyphenyl)-N4-ethyl-8-(4-fluorophenyl)-N4-methyl-7,8-dihydro-5H-pyrano[4,3-d]pyrimidine-2,4-diamine] yielded a pIC50 of 7.07.
Work on `CCNc1nc(Nc2ccc(-n3cnc(Cl)c3)c(OC)c2)nc2c1CCOC2c1ccc(F)cc1` (stereo not drawn) [Example 88A, N2-(4-(4-chloro-1H-imidazol-1-yl)-3-methoxyphenyl)-N4-ethyl-8-(4-fluorophenyl)-6,8-dihydro-5H-pyrano[3,4-d]pyrimidine-2,4-diamine] yielded a pIC50 of 8.35.
For `COc1cc(Nc2nc3c(c(N(C)S(C)(=O)=O)n2)CCC3c2ccccc2)ccc1-n1cnc(Cl)c1` (stereo not drawn) [Example 210, N-(2-(4-(4-chloro-1H-imidazol-1-yl)-3-methoxyphenylamino)-7-phenyl-6,7-dihydro-5H-cyclopenta[d]pyrimidin-4-yl)-N-methylmethanesulfonamide], the pIC50 was 7.21.

Same assay, conditions: H4 APP751 SWE clone 8.20 cells, 19 h incubation; class symbols; TFA; read-out: Activity Rating (Aβ42 cellular IC50)
For `COc1cc(Nc2nc3c(c(N4CC[C@@H](F)C4)n2)COC3c2ccc(F)cc2)ccc1-n1cnc(Cl)c1` (mixture of isomers) [Example 83, N-(4-(4-chloro-1H-imidazol-1-yl)-3-methoxyphenyl)-7-(4-fluorophenyl)-4-((R)-3-fluoropyrrolidin-1-yl)-5,7-dihydrofuro[3,4-d]pyrimidin-2-amine, 2 TFA], the pIC50 was 7.00 to 8.00.

Same assay, conditions: H4 APP751 SWE clone 8.20 cells, 19 h incubation; class symbols; read-out: Activity Rating (Aβ42 cellular IC50)
With `COc1cc(Nc2nc3c(c(N4CCCC4C)n2)CCC3c2ccc(F)cc2)ccc1-n1cnc(Cl)c1` (single isomer, unassigned) [Example 20A, N-(4-(4-chloro-1H-imidazol-1-yl)-3-methoxyphenyl)-7-(4-fluorophenyl)-4-(2-methylpyrrolidin-1-yl)-6,7-dihydro-5H-cyclopenta[d]pyrimidin-2-amine] the pIC50 was 8.00 to 8.82.
Work on `[2H]C([2H])([2H])Nc1nc(Nc2ccc(-n3cnc(Cl)c3)c(OC)c2)nc2c1CCC2c1ccccc1` (single isomer, unassigned) [Example 176B, N^2-(4-(4-Chloro-1H-imidazol-1-yl)-3-methoxyphenyl)-N^4-trideuteromethyl-7-phenyl-6,7-dihydro-5H-cyclopenta[d]pyrimidine-2,4-diamine] yielded a pIC50 of 8.00 to 8.82.
Compound `COc1cc(Nc2nc3c(c(N4CC(Cl)C4)n2)CCC3c2ccccc2)ccc1-n1cnc(Cl)c1` (stereo not drawn) [Example 181A, N-(4-(4-chloro-1H-imidazol-1-yl)-3-methoxyphenyl)-4-(3-chloroazetidin-1-yl)-7-phenyl-6,7-dihydro-5H-cyclopenta[d]pyrimidin-2-amine] has a pIC50 of 8.00 to 8.82.
`CCNc1nc(Nc2ccc(-n3ncnc3C)c(F)c2)nc2c1COCC2c1ccc(F)c(F)c1` (stereo not drawn) [Example 116B, 8-(3,4-difluorophenyl)-N4-ethyl-N2-(3-fluoro-4-(5-methyl-1H-1,2,4-triazol-1-yl)phenyl)-7,8-dihydro-5H-pyrano[4,3-d]pyrimidine-2,4-diamine] gave a pIC50 of 6.00 to 7.00.
`CCN(C)c1nc(Nc2ccc(-n3cnc(Cl)c3)c(OC)c2)nc2c1COCC2c1ccccc1` (single isomer, unassigned) [Example 52B, N^2-(4-(4-Chloro-1H-imidazol-1-yl)-3-methoxyphenyl)-N^4-ethyl-N^4-methyl-8-phenyl-7,8-dihydro-5H-pyrano[4,3-d]pyrimidine-2,4-diamine] showed a pIC50 of 7.00 to 8.00.
In the case of `COc1cc(Nc2nc3c(c(N4CC(OC)C4)n2)CCC3c2ccccc2)ccc1-n1cnc(Cl)c1` (single isomer, unassigned) [Example 183B, N-(4-(4-chloro-1H-imidazol-1-yl)-3-methoxyphenyl)-4-(3-methoxyazetidin-1-yl)-7-phenyl-6,7-dihydro-5H-cyclopenta[d]pyrimidin-2-amine], the pIC50 was 7.00 to 8.00.
Work on `COc1cc(Nc2nc3c(c(N(C)C)n2)CCC3c2ccc(F)cc2)ccc1-n1cnc(Cl)c1` (single isomer, unassigned) [Example 46A, N^2-(4-(4-chloro-1H-imidazol-1-yl)-3-methoxyphenyl)-7-(4-fluorophenyl)-N^4,N^4-dimethyl-6,7-dihydro-5H-cyclopenta[d]pyrimidine-2,4-diamine] yielded a pIC50 of 8.00 to 8.82.

Same assay, conditions: H4 APP751 SWE clone 8.20 cells, 19 h incubation; read-out: Activity Rating (Aβ42 cellular IC50), numeric value
`COc1cc(Nc2nc3c(c(N4CC(C)(OC)C4)n2)CCC3c2ccc(F)cc2)ccc1-n1cnc(C)n1` (stereo not drawn) [Example 192, 7-(4-fluorophenyl)-4-(3-methoxy-3-methylazetidin-1-yl)-N-(3-methoxy-4-(3-methyl-1H-1,2,4-triazol-1-yl)phenyl)-6,7-dihydro-5H-cyclopenta[d]pyrimidin-2-amine] gave a pIC50 of 7.19.
